Assays:
[1] = target: T1, Klenow fragment exo− polymerase (Escherichia coli, UniProt P00582, D355A/E357A); assay type: biochemical, E. coli; conditions: Kf exo−; for Km / kcat: 37° C., single nucleotide incorporation, mean ± SD of three
T1 construct: Klenow fragment of DNA polymerase I 3′-exonuclease deficient variant, Kf exo^−; purchased New England BioLabs
Text: Next we performed experiments to quantify the efficiency of ARNs as DNA polymerase substrates. We used published analytical high-resolution gel-based methods to evaluate steady state kinetics of the four nucleotides as substrates during single nucleotide incorporation experiments, with Kf exo^−. We performed similar measurements with the natural dNTPs for comparison.
Steady-State DNA Polymerase Efficiency with Chimeric ATP-Releasing Nucleotides, with Kf Exo^−.
Steady-state kinetics measurements. Steady-state kinetics assays were performed following previously published procedures (Swanson et al. Biochemistry 2011, 50, 7666-7673). The 13mer primer (SEQ ID NO:13, 5′-[…]-3′) was end labeled with T4 polynucleotide kinase and [γ-^32P]-ATP following the manufacturer's protocol. The 20mer template ODNs (SEQ ID NO:14, 5′-[…]-3′, N=A, T, C, G) were annealed with 5′-^32P-labeled 13mer primer as described above. The annealed primer-template duplex (0.05 μM) was incubated with Klenow fragment exo^− polymerase at 37° C. for 5 min in the presence of individual dNTPs or chimeric ATP-linked nucleotides at varied concentrations.
The parameters were adjusted to result in extents of reaction of 20% or less to maintain initial velocity conditions. The reaction was terminated with an equal volume of formamide gel loading buffer (95% formamide, 20 mM EDTA, 0.05% xylene cyanol and bromophenol blue). Extension products were separated on 20% denaturing polyacrylamide gels containing 8 M urea. Gel band intensities of the primer and its extension products were quantified using a Typhoon 9410 Variable Mode Imager. Quantitative imaging of bands was carried out using Image J software to determine the fraction of primer extension. The velocity was plotted as a function of dNTP (or ARN) concentration and fit with the Michaelis-Menten equation to obtain the kinetic parameters, Vmax and Km. Reactions were performed three times and the mean (±standard deviation) of Vmax and Km are reported. The kcat values were calculated by dividing the Vmax with the concentration of polmerase used. The efficiency of nucleotide incorporation was calculated by the ratio Kcat/Km.

Kf (exo-) polymerase = target: T2, Kf (exo-) polymerase (Escherichia coli, UniProt P00582, D355A/E357A); assay type: biochemical, E. coli; conditions: for signal on the T20 template sequence (misincorporation of adenosine ribonucleotide moiety): 20 μM ARN, (T)20 template, Kf polymerase
T2 construct: Klenow fragment of DNA polymerase I 3′-exonuclease deficient variant, Kf exo^−; purchased New England BioLabs
T2 sequence (P00582 324-928 D355A/E357A): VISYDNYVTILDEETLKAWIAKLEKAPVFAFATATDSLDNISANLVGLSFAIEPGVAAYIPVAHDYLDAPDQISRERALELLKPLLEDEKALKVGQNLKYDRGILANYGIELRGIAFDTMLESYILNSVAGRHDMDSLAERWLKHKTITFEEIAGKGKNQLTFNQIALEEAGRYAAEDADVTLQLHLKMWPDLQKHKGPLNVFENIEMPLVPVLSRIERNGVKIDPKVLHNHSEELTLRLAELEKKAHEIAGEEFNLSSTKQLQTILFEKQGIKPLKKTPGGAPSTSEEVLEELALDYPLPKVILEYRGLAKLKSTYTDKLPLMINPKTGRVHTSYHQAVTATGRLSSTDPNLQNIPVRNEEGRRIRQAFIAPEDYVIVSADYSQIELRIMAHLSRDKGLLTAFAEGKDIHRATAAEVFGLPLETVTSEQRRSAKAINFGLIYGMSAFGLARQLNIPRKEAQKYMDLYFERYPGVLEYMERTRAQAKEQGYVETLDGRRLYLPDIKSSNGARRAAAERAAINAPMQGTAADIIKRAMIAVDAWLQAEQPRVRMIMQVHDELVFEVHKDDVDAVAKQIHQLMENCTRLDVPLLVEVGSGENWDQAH
Method: polymerase. (A) Primer-template duplexes with (N)20 ends used in this study. (B) Luminescence signals resulting from the incorporation of ATP-linked nucleotides by Kf (exo.) polymerase. The Kf (exo.) polymerase reaction was carried out with 20 μM chimeric nucleotides and 1 μM corresponding primer template at 37° C. for 1 h. 5 μL of polymerase reaction solution were used for the luciferase reaction. […] (C) Kf (exo.) polymerase selectivity with chimeric nucleotides. The reaction was carried out using the (T)20 template and each of the four ARNs under the same reaction conditions as FIG. 2B.
FIG. 5. Selectivity of chimeric nucleotides with Kf (exo-) polymerase. Each of the four chimeric ARNs was supplied with the polymerase and the annealed primer-template duplex immediately upstream of the sequence T20 (A), C20 (B), A20 (C), and G20 (D), respectively. The polymerase reaction contained: 20 μM chimeric nucleotide, 1 μM corresponding primer/template and 1 μL Kf (exo-) polymerase in manufacturer's polymerase reaction buffer. After 1 h incubation at 37° C., 5 μL reaction solutions were added to 95 μL luciferase reaction solution. The bioluminescence signal was recorded at 1 min intervals over 1 h by microplate fluorimeter.
Our initial studies were directed at testing whether these modified nucleotides would be active as substrates for a DNA polymerase. We carried out experiments of primer extension on short synthetic primer/template duplexes (FIG. 2; 1 μM) in the presence of a standard polymerase (Klenow fragment of DNA polymerase I 3′-exonuclease deficient variant, Kf exo^−). We supplied one ARN at a time (20 μM) to its complementary template for one hour; if synthesis were successful it should generate up to ˜20 μM ATP as by-product of the reaction. We removed a small aliquot of the polymerase reaction and measured luminescence from this aliquot containing ATP in a commercial luciferase+luciferin reaction buffer over one hour (FIG. 2B). […] In this latter case we hypothesize the presence of intra- or inter-molecular G quadruplex structures that may inhibit the polymerase, possibly explaining the diminishment of ATP signal. In all four cases, signals were considerably (13-33-fold) higher than background in which primer/template DNA was omitted.
Next we tested sequence selectivity of the chimeric nucleotides, evaluating sixteen combinations of ARNs with the four DNA sequences (FIG. 2C and FIG. 5). In all cases, the correct nucleotide/target sequence combinations yielded much higher signals than incorrect combinations, showing clear nucleotide/template base selectivity. […]
Primer extension and luciferase signaling with short linear test templates. […] The bioluminescence signal was recorded by microplate fluorometer (Fluoroskan Ascent, Thermal). […]

T1 sequence (P00582 324-928 D355A/E357A): as above

Row | SMILES | Km [1] [nM] | kcat [1] [min⁻¹] | kcat/Km less than that of native congener dNTP [1] [fold] | signal on the T20 template sequence (misincorporation of adenosine ribonucleotide moiety) (Kf (exo-) polymerase) | background signal in selectivity experiments (Kf (exo-) polymerase; sixteen combinations of ARNs with four DNA sequences)
1 | Nc1nc2c(ncn2[C@H]2C[C@H](O)[C@@H](COP(=O)(O)OP(=O)(O)OP(=O)(O)O)O2)c(=O)[nH]1 [dGTP, reference compound] | 110 ± 10 | 15.4 ± 0.5 |  |  | 
2 | Nc1nc2c(ncn2[C@H]2C[C@H](O)[C@@H](COP(=O)(O)OP(=O)(O)OP(=O)(O)OP(=O)(O)OC[C@H]3O[C@@H](n4cnc5c(N)ncnc54)[C@H](O)[C@@H]3O)O2)c(=O)[nH]1 [dGppppA, Deoxyguanosine-5′-tetraphosphate-P4-5′-Adenosine] | 3500 ± 400 | 7.1 ± 0.5 | 70 | lack of enhanced signal | 
3 | Cc1cn([C@H]2C[C@H](O)[C@@H](COP(=O)(O)OP(=O)(O)OP(=O)(O)O)O2)c(=O)[nH]c1=O [dTTP, reference compound] | 240 ± 60 | 8.7 ± 0.3 |  |  | 
4 | Nc1ncnc2c1ncn2[C@H]1C[C@H](O)[C@@H](COP(=O)(O)OP(=O)(O)OP(=O)(O)O)O1 [dATP, reference compound] | 350 ± 50 | 8.6 ± 0.3 |  |  | 
5 | Nc1ccn([C@H]2C[C@H](O)[C@@H](COP(=O)(O)OP(=O)(O)OP(=O)(O)OP(=O)(O)OC[C@H]3O[C@@H](n4cnc5c(N)ncnc54)[C@H](O)[C@@H]3O)O2)c(=O)n1 [dCppppA, Deoxycytidine-5′-tetraphosphate-P4-5′-Adenosine] | 3000 ± 200 | 12.9 ± 0.1 |  | lack of enhanced signal | main background signal
6 | Nc1ncnc2c1ncn2[C@@H]1O[C@H](COP(=O)(O)OP(=O)(O)OP(=O)(O)OP(=O)(O)OC[C@H]2O[C@@H](n3cnc4c(N)ncnc43)C[C@@H]2O)[C@@H](O)[C@H]1O [dAppppA, Deoxyadenosine-5′-tetraphosphate-P4-5′-Adenosine] | 1300 ± 400 | 7.1 ± 0.2 | 5 |  | 
7 | Cc1cn([C@H]2C[C@H](O)[C@@H](COP(=O)(O)OP(=O)(O)OP(=O)(O)OP(=O)(O)OC[C@H]3O[C@@H](n4cnc5c(N)ncnc54)[C@H](O)[C@@H]3O)O2)c(=O)[nH]c1=O [dTppppA, Thymidine-5′-tetraphosphate-P4-5′-Adenosine] | 2200 ± 600 | 3.7 ± 0.1 |  | lack of enhanced signal | 
8 | Nc1ccn([C@H]2C[C@H](O)[C@@H](COP(=O)(O)OP(=O)(O)OP(=O)(O)O)O2)c(=O)n1 [dCTP, reference compound] | 70 ± 10 | 14.0 ± 0.4 |  |  | 

From patent publication US20170159112A1, “AMPLIFIED ISOTHERMAL DETECTION OF POLYNUCLEOTIDES WITH ATP RELEASE” (priority 2015, published 2017)
